Experimental data from publication PMC7710018, “Restoration of motor learning in a mouse model of Rett syndrome following long-term treatment with a novel small-molecule activator of TrkB” (Disease Models & Mechanisms, 2020).
Read-outs that look alike come from different tables or passages of the source.

Biological target: T1, D1 (h) (Homo sapiens, UniProt P21728)
T1 construct: purchased Cerep (ExpresSProfile)
Test: Cerep ExpresSProfile radioligand binding
Details: 10 micromolar, antagonist radioligand
Experimental: To evaluate the relative binding specificity of LM22A-4 ([Massa et al., 2010]) and PTX-BD4-3, binding to a broad range of 55 pharmacologically relevant receptors, including numerous neurotransmitter and G-protein coupled receptors was assessed using standard radioligand competition binding assays (ExpressSProfile) performed by Cerep, Inc. (Seattle, WA, USA). In addition, ADME-Tox analysis was performed by Cerep, Inc. All experimental conditions are described on the Cerep website (www.cerep.fr).
Ligand % Inhibition of Control Specific […]
48 Ca2+ channel (L, verapamil site) 0 ‐1.3 ‐0.7
(phenylalkylamine) (antagonist radioligand) […]
51 Na+ channel (site 2) (antagonist radioligand) 0.6 11.7 6.1
52 Cl‐ channel (GABA‐gated) (antagonist 2.7 ‐5.3 ‐1.3 […]
Table S1. In vitro binding assays. An ExpresSProfile screen of PTX-BD4-3 binding to a panel of pharmacologically relevant receptors was conducted by Cerep, Inc.
(Eurofins Panlabs, MO). The results are expressed as percent inhibition of control specific binding obtained in the presence of 10 micromolar PTX-BD4-3. In this assay, values below 50% indicate no specific binding of PTX-BD4-3. The assay was negative for PTX-BD4-3 binding to all of the 55 receptors in the screen.
(also on this page, place not known: 2B 5‐HT 3 5‐HT 5a 5‐HT 6 5‐HT 7 (agonis t VPAC 1 V 1 Ca 2+ K V SK Ca Na + Cl ‐ 5‐HT Disease Models & Mechanisms: doi:10.1242/dmm.044685: Supplementary information Disease Models & Mechanisms • Supplementary information)

T1 sequence (P21728 whole entry): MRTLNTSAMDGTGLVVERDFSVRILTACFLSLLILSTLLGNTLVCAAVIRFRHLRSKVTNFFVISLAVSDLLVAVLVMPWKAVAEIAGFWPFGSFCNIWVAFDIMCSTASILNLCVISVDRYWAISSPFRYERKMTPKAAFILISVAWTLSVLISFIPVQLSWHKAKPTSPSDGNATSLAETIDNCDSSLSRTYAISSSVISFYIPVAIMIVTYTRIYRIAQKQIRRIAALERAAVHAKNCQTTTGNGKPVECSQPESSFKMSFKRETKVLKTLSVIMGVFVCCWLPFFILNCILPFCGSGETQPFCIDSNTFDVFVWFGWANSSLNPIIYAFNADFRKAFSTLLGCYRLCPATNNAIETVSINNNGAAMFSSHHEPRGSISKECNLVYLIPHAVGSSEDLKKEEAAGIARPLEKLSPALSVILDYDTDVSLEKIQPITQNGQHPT

COCCN(C)C(=O)c1cc(C(=O)N(C)CCOC)cc(C(=O)N(C)CCOC)c1 [PTX-BD4-3, benzene-1,3,5-tricarboxylic acid tris-[(2-methoxy-ethyl)-methyl-amide]]
inhibition at 10 µM (read-out: % Inhibition of Control Specific Binding 1st): 10.7% | inhibition at 10 µM (read-out: % Inhibition of Control Specific Binding 2nd): 1.3% | inhibition at 10 µM (read-out: % Inhibition of Control Specific Binding Mean): 6%
